Data from patent US20040161757A1, “Use of acetyl-coa carboxylase for identifying compounds that have an insecticidal effect” (priority 2000, published 2004).

Test system: peach aphid Myzus persicae
Assay: Impairment of lipid neogenesis: 14C-acetate feeding by the sachet method, lipid extract separated by TLC
Format: in vivo
Source text: Peach aphid Myzus persicae larvae or adults were fed for two days with nutrient solutions with and without one of the identified ACCase inhibitors, using the sachet method (Nauen et al. 1996).
Thereafter, the animals were collected and homogenized in organic solvent using a pestle and mortar. The organic phase was cleansed of water-soluble constituents by repeatedly extracting it by shaking with aqueous solution, and the solvent was then evaporated. The pellet which remained was taken up in a little solvent and separated by thin-layer chromatography (TLC). The lipids which were separated were stained with amido black. ^14C-acetate which was incorporated into the lipids was detected by autoradiography after an exposure time of 2-3 days. To quantify the ^14C-incorporation into lipids, the bands in question were scraped out after staining, dissolved, and the activity was determined in a scintillation counter. […] Thus, no de novo lipid synthesis from acetate has taken place. […] It can be seen clearly that increasing inhibitor concentrations halt the de-novo lipid biosynthesis.
The mobile phase used for the TLC chromatography was n-hexane: diethyl ether: glacial acetic acid (60:45:1).

SMILES: COC1CCC2(CC1)NC(=O)C(c1c(C)cc(C)c(C)c1C)=C2O (centres unmarked) [I-A, 4-hydroxy-8-methoxy-3-(2,3,4,6-tetramethylphenyl)-1-azaspiro[4,5]dec-32-en-2-one]
- radiolabeled 14C-acetate incorporated into lipids during de-novo synthesis (autoradiograph of TLC plate) (fed for two days, exposure time 2-3 days, FIG. 1b, treated vs control aphids): no labeled lipids are present
- lipid composition and lipid content (lipid status after acetate feeding, TLC stained with amido black) (larvae or adults fed for two days with nutrient solution with vs without active ingredient, FIG. 1a lanes 4-6 vs 1-3): No significant differences
